Laboratory results as given in patent US8436180B2, “Substituted-4-aryl-1,4-dihydro-1,6-naphthyridinamides and use thereof” (Bayer Intellectual Property GmbH, priority 2007, dated 2013).

Tests used:
[1] = target: T1, human mineralocorticoid receptor (MR) (Homo sapiens, UniProt P08235); test: Cellular in vitro assay to determine the inhibitory MR activity (GAL4-MR chimera luciferase reporter in CHO K1 cells); format: cell-based; details: antagonism of aldosterone-stimulated luciferase activity
T1 construct: expressed in transfected cells; host or cells: CHO K1 (Chinese hamster ovary), stably transfected
T1 sequence (P08235 734-984 limits assumed): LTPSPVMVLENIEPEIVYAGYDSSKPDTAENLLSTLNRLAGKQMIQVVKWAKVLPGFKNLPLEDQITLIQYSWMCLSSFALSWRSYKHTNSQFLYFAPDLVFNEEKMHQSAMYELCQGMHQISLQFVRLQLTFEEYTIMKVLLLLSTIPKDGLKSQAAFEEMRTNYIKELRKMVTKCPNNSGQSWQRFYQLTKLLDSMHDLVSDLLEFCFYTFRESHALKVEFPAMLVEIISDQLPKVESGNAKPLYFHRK
Source text: 1. Cellular In Vitro Assay to Determine the Inhibitory MR Activity and MR Selectivity Compared with Other Steroid Hormone Receptors
Antagonists of the human mineralocorticoid receptor (MR) are identified, and the activity of the compounds described herein is quantified with the aid of a recombinant cell line. The cell is originally derived from a hamster ovary epithelial cell (Chinese Hamster Ovary, CHO K1, ATCC: American Type Culture Collection, VA 20108, USA).
An established chimera system in which the ligand-binding domains of human steroid hormone receptors are fused to the DNA-binding domain of the yeast transcription factor GAL4 is used in this CHO K1 cell line. The GAL4-steroid hormone receptor chimeras produced in this way are cotransfected and stably expressed with a reporter construct in the CHO cells.
To generate the GAL4-steroid hormone receptor chimeras, the GAL4 DNA binding domain (amino acids 1-147) from the vector pFC2-dbd (from Stratagene) is cloned with the PCR-amplified ligand-binding domains of the mineralocorticoid receptor (MR, amino acids 734-985), of the glucocorticoid receptor (GR, amino acids 443-777), of the progesterone receptor (PR, amino acids 680-933) and of the androgen receptor (AR, amino acids 667-919) into the vector pIRES2 (from Clontech). […]
The MR, GR, PR and AR cells are plated out in medium (Optimem, 2.5% FCS, 2 mM glutamine, 10 mM HEPES) in 96- (or 384- or 1536-) well microtiter plates on the day before the assay and are kept in a cell incubator (96% humidity, 5% v/v CO2, 37° C.). […] After a further incubation time of 5 to 6 hours, the luciferase activity is measured with the aid of a video camera. The measured relative light units as a function of the substance concentration result in a sigmoidal stimulation curve. The IC50 values are calculated with the aid of the GraphPad PRISM computer program (Version 3.02).

[2] = tested on: aldosterone-induced sodium retention; test: In vivo assay for detecting anti-mineralocorticoid activity on anesthetized dogs; parameters: species or system dog; details: anesthetized dogs under continuous aldosterone infusion (0.6 μg/kg/h); positive control

Row | IC50 [1] [nM] | Structure (SMILES) | sodium/potassium ratio in the urine [2]
1 | 16 | CCOc1ncc(C)c2c1[C@H](c1ccc(C#N)cc1OC)C(C(N)=O)=C(C)N2 [5 [(−)-enantiomer]] | –
2 | 35 | CCOc1nccc2c1C(c1ccc(C#N)cc1OC)C(C(N)=O)=C(C)N2 (stereo not shown) [Example 1, 4-(4-Cyano-2-methoxyphenyl)-5-ethoxy-2-methyl-1,4-dihydro-1,6-naphthyridine-3-carboxamide] | –
3 | – | CC(=O)S[C@@H]1CC2=CC(=O)CC[C@]2(C)[C@H]2CC[C@@]3(C)[C@@H](CC[C@@]34CCC(=O)O4)[C@H]12 [Spironolactone] | increases the sodium/potassium ratio in the urine dose-dependently

Row | Structure (SMILES) | IC50 [1] [nM] | sodium/potassium ratio in the urine [2]
4 | CCOc1ncc(C)c2c1C(c1ccc(C#N)cc1OC)C(C(N)=O)=C(C)N2 (racemic) [Example 4, 4-(4-Cyano-2-methoxyphenyl)-5-ethoxy-2,8-dimethyl-1,4-dihydro-1,6-naphthyridine-3-carboxamide] | 23 | –
